From patent US6620828B2, “Thiazole compounds and pharmaceutical compositions for inhibiting protein kinases and methods for their use” (Agouron Pharmaceuticals, Inc., priority 1999, dated 2003)

Experiments:
Assay type in all cases: biochemical
[1] = target: T1, phosphorylated VEGF-R2Δ50 (FLVK-P) (Homo sapiens, UniProt P35968, DEL940-989/E990V); assay: VEGF-R2 coupled spectrophotometric (FLVK-P) assay; conditions: combinatorial library compounds; for inhibition at 20 µM: read-out: VEGF % inhibition at 20 μM, 20 μM
T1 construct: VEGF-R2Δ50 contains residues 806-939 and 990-1171; made in house; host or cells: baculovirus/insect cells
In short: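 Baculovirus-expressed human VEGF-R2Δ50 (residues 806-939/990-1171, E990V) was autophosphorylated with 3 mM ATP, 40 mM MgCl2 for 2 h at 4° C. ADP formation was coupled via PK/LDH to NADH oxidation, read at 340 nm, with 5.1 mM poly(E4Y1), 1 mM ATP, 25 mM MgCl2, Hepes pH 7.5. Ki came from activity across compound concentrations.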

[2] = target: CDK2/Cyclin A complex (Homo sapiens, UniProt P24941); assay: CDK2/Cyclin A assay; conditions: 1.0 μM; combinatorial library compounds
In short: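 Radiometric assay: 150 nM CDK2/cyclin A (insect-cell CDK2, truncated cyclin A) phosphorylates His-tagged Rb fragment (residues 386-928) with 25 μM ATP plus [32P]ATP, pH 7.4 HEPES, 2% DMSO, 30 °C for 20 min. Filter-captured product counted by phosphorimager; apparent Ki from competitive or tight-binding inhibition fits.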

[3] = target: T2, FL-CHK1 (Homo sapiens, UniProt O14757); assay: CHK1 assay; conditions: 20 μM; combinatorial library compounds
T2 construct: C-terminally His-tagged full-length human CHK1 (FL-CHK1); 6xHis (C); made in house; host or cells: baculovirus/insect cells
T2 sequence (O14757 1-476): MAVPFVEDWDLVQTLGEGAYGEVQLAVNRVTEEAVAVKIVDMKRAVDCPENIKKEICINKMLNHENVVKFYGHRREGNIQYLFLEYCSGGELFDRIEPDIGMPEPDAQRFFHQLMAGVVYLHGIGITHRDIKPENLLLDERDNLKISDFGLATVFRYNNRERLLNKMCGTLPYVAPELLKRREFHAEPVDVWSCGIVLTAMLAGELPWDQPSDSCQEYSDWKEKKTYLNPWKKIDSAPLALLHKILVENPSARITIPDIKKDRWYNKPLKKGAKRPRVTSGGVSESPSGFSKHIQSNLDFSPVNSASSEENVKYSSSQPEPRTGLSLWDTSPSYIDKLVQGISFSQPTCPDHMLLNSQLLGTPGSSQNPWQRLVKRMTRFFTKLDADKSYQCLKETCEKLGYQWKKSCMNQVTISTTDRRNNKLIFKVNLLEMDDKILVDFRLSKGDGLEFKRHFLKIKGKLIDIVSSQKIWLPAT
In short: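 Full-length human CHK1 with C-terminal 6×His tag, made in baculovirus/insect cells, 10 nM, phosphorylating 0.125 mM Syntide-2 with 0.15 mM ATP in 50 mM Tris pH 7.5, 25 mM MgCl2, 400 mM NaCl. PK/LDH-coupled NADH oxidation read at 340 nm. Ki from initial rates over varied compound concentrations.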

[4] = target: T3, CDK4/Cyclin D3 complex (Homo sapiens, UniProt P11802); assay: CDK4/Cyclin D assay; conditions: 1.0 μM; combinatorial library compounds
T3 construct: made in house; host or cells: insect cells co-infected with baculovirus vectors
In short: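 Insect-cell-expressed CDK4/cyclin D3 (50 nM) phosphorylating His-tagged Rb fragment (residues 386-928) with 25 μM [^32P]ATP in HEPES pH 7.4, MgCl2, 2% DMSO; 20 min at 30 °C, EDTA stop. Filter-captured 32P by phosphorimager; apparent Ki from competitive or tight-binding inhibition fits.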

T3 sequence (P11802 whole entry): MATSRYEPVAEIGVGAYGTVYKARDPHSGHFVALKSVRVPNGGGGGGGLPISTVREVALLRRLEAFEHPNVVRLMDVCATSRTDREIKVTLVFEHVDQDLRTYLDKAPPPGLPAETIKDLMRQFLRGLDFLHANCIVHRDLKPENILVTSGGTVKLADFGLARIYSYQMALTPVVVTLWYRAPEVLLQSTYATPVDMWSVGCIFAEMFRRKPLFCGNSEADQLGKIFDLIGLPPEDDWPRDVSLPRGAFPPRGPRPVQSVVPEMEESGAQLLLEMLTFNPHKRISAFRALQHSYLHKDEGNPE
T3 sequence (P30281 whole entry partner): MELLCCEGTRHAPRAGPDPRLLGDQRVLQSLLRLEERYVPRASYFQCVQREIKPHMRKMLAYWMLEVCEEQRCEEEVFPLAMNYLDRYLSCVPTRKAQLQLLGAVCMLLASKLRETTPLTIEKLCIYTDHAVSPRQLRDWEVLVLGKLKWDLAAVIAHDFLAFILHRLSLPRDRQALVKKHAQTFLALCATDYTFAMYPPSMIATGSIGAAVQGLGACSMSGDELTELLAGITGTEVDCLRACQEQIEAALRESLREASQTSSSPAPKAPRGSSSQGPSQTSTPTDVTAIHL
T1 sequence (P35968 with tags, fused parts or gaps DEL940-989/E990V limits assumed): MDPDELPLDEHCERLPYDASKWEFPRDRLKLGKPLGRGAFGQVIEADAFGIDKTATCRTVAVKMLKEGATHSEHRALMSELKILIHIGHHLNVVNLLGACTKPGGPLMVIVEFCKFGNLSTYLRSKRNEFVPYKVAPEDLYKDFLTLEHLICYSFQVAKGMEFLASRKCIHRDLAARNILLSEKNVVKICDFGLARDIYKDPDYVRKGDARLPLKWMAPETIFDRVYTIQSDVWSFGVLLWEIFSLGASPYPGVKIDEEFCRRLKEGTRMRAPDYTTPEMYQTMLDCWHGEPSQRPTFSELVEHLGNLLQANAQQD

inhibition at 20 µM [1] | inhibition at 1 µM [2] | inhibition at 20 µM [3] | inhibition at 1 µM [4] | VEGF % inhibition at 20 μM ([1]; 20 μM) | CDK2 % Inhibition at 1.0 μM [2] | CDK4 % Inhibition at 1.0 μM [4] | SMILES
32% | 24% | 43.9% | 64.1% | – | – | – | Cc1cc(-c2csc(-c3sc(Nc4ccc(N(C)C)cc4)nc3N)n2)c(C)s1
27% | 38.3% | 29.3% | 63.5% | – | – | – | CN(C)c1ccc(Nc2nc(N)c(-c3nc(-c4ccc5oc6ccccc6c5c4)cs3)s2)cc1
18% | 3.1% | 32.9% | 74.4% | – | – | – | CN(C)c1ccc(Nc2nc(N)c(-c3nc(-c4ccc5c(c4)C(C)(C)CCC5(C)C)cs3)s2)cc1
5% | 33.4% | 13.1% | 60.3% | – | – | – | CN(C)c1ccc(Nc2nc(N)c(-c3nc(-c4ccc(C(F)(F)F)cc4)cs3)s2)cc1
20% | -2.5% | 32.7% | 43.7% | – | – | – | CN(C)c1ccc(Nc2nc(N)c(-c3nc(-c4ccc5c(c4)CCC(=O)N5)cs3)s2)cc1
23% | 27.1% | 9.8% | 48.5% | – | – | – | CN(C)c1ccc(Nc2nc(N)c(-c3nc(-c4ccccc4OC(=O)c4ccccc4)cs3)s2)cc1
17% | 20.5% | 18.8% | 70.9% | – | – | – | CCc1cc2c(cc1-c1csc(-c3sc(Nc4ccc(N(C)C)cc4)nc3N)n1)C(C)(C)CCC2(C)C
14% | 24.6% | 26% | 81.8% | – | – | – | COc1ccc2nc(-c3ccccc3)c(-c3csc(-c4sc(Nc5ccc(N(C)C)cc5)nc4N)n3)cc2c1
26% | 23.3% | 3.2% | 12.1% | – | – | – | Cc1c(-c2csc(-c3sc(Nc4ccc(N(C)C)cc4)nc3N)n2)sc2ccccc12
6% | 18.3% | 37.1% | 73.2% | – | – | – | CN(C)c1ccc(Nc2nc(N)c(-c3nc(-c4cc(C(C)(C)C)c(O)c(C(C)(C)C)c4)cs3)s2)cc1
21% | 18.9% | 18.7% | 16% | – | – | – | COc1ccccc1-c1csc(-c2sc(Nc3ccc(S(N)(=O)=O)cc3)nc2N)n1 [drawing 394]
33% | 20.5% | -2.1% | -9.6% | – | – | – | Cc1ccc(-c2csc(-c3sc(Nc4ccc(S(N)(=O)=O)cc4)nc3N)n2)cc1 [drawing 395]
– | – | 6.9% | – | 48% | 10.7% | 9.3% | COc1ccc(-c2csc(-c3sc(Nc4ccc(S(N)(=O)=O)cc4)nc3N)n2)cc1 [drawing 399]
-3% | 11.2% | 12.3% | -11.3% | – | – | – | Nc1nc(Nc2ccc(S(N)(=O)=O)cc2)sc1-c1nc(-c2ccc(-c3ccccc3)cc2)cs1 [drawing 404]
32% | 63% | 14.7% | 79.2% | – | – | – | Nc1nc(Nc2ccc(S(N)(=O)=O)cc2)sc1-c1nc(-c2ccc(Cl)cc2Cl)cs1 [drawing 406]
43% | 74.7% | 33.7% | 61.2% | – | – | – | Nc1nc(Nc2ccc(S(N)(=O)=O)cc2)sc1-c1nc(-c2ccc(F)cc2)cs1 [drawing 409]
56% | 57.9% | 18.7% | 51.3% | – | – | – | Nc1nc(Nc2ccc(S(N)(=O)=O)cc2)sc1-c1nc(-c2ccc(O)cc2)cs1 [drawing 415]
23% | – | 11.2% | – | – | 8.2% | −33.4% | Nc1nc(Nc2ccc(S(N)(=O)=O)cc2)sc1-c1nc(-c2ccccc2)cs1 [drawing 421]
